Experimental data published in US10952992B2, “Methods of treating intraocular pressure with activators of Tie-2” (Aerpio Pharmaceuticals, Inc., priority 2015, dated 2021).
Several values for one entry are separate records, joined by “and”; a condition that tells them apart may be missing. Equal entries are not always repeated.

Assay: Example 2 iris, retina, choroid and cornea tissue concentrations
Format: in vivo, male New Zealand White rabbits
Settings: for Choroid Conc. OS / Choroid Conc. OD: choroid homogenate; for Choroid Conc. OS / Choroid tissue Conc. OS / Cornea Conc. OS / Cornea tissue Conc. OS / Iris Conc. OS / Iris tissue Conc. OS / Retina Conc. OS / Retina tissue Conc. OS: left eye; for Choroid Conc. OS / Choroid Conc. OD / Choroid tissue Conc. OS / Choroid tissue Conc. OD / Cornea Conc. OS / Cornea Conc. OD / Cornea tissue Conc. OS / Cornea tissue Conc. OD / Iris Conc. OS / Iris Conc. OD / Iris tissue Conc. OS / Iris tissue Conc. OD / Retina Conc. OS / Retina Conc. OD / Retina tissue Conc. OS / Retina tissue Conc. OD: individual animals; for Choroid Conc. OS / Choroid Conc. OD / Choroid tissue Conc. Avg. / Choroid tissue Conc. OS / Choroid tissue Conc. OD / Cornea Conc. OS / Cornea Conc. OD / Cornea tissue Conc. Avg. / Cornea tissue Conc. OS / Cornea tissue Conc. OD / Iris Conc. OS / Iris Conc. OD / Iris tissue Conc. Avg. / Iris tissue Conc. OS / Iris tissue Conc. OD / Retina Conc. OS / Retina Conc. OD / Retina tissue Conc. Avg. / Retina tissue Conc. OS / Retina tissue Conc. OD: intravitreal 2.5 mg/eye (~1.54 mg/kg), group 5; for Choroid Conc. OD / Choroid tissue Conc. OD / Cornea Conc. OD / Cornea tissue Conc. OD / Iris Conc. OD / Iris tissue Conc. OD / Retina Conc. OD / Retina tissue Conc. OD: right eye; for Choroid tissue Conc. Avg. / Cornea tissue Conc. Avg. / Iris tissue Conc. Avg. / Retina tissue Conc. Avg.: average; for Cornea Conc. OS / Cornea Conc. OD: cornea homogenate; for Iris Conc. OS / Iris Conc. OD: iris homogenate; for Retina Conc. OS / Retina Conc. OD: retina homogenate
Description: To measure the concentration of Compound 1 in plasma and ocular tissues following topical ocular, subcutaneous, and intravitreal administration, New Zealand White rabbits were administered Compound 1, and plasma and ocular samples were collected at pre-determined time points. Compound 1 formulations were prepared fresh on each day of dosing.
Ocular tissue samples from both eyes of each animal were collected and weights were recorded. Plasma and ocular tissue sample concentrations of Compound 1 were determined by LC-MS/MS.
Animals were anesthetized for ocular (topical) and intravitreal dosing following the 12IA7 IACUC protocol. Each rabbit received a bolus dose of test formulation either via topical ocular administration 3 times daily on Days 1 and 2 (at 0, 6, and 12 hours), and once on Day 3 (at 0 hours) into both eyes; via intravitreal administration into both eyes once on Day 1 (at 0 hours); or via subcutaneous administration 2 times daily on Days 1 and 2 (at 0 and 8 hours) and once daily on Day 3 (at 0 hours). Doses were given within an approximately 1 hour window each day where applicable.
On Day 1, for intravitreal administration, or on Day 3, for topical ocular and subcutaneous administration, at the appropriate ocular tissue collection time points, animals were euthanized and both eyes were enucleated immediately. Following enucleation, each eye was rinsed with phosphate-buffered saline. Ocular tissue samples from both eyes of each animal were collected at predetermined time points and weights were recorded. All the samples were frozen immediately on dry ice, and stored at −60° C. to −80° C. pending bioanalysis.
An LC-MS/MS method was developed for the determination of Compound 1 in rabbit aqueous tissues (plasma, aqueous and vitreous humor) and solid ocular tissue samples. A pre-study standard curve was analyzed to determine the specificity, range, and lower limit of quantitation of the method. Plasma and tissue homogenate study samples were extracted and analyzed. All the samples were treated identically to the standards.
One eight-point standard curve was used in each analytical batch. To be accepted, each batch must have had at least five of eight standards with accuracy within ±20% of nominal, except at the lower limit of quantification (LLOQ), where ±25% was acceptable.

COC(=O)N[C@@H](Cc1ccccc1)C(=O)N[C@@H](Cc1ccc(NS(=O)(=O)O)cc1)c1csc(-c2cccs2)n1 [Compound 1 free acid]
Choroid Conc. OS (24 hr): 28400 ng/mL and 43500 ng/mL
Choroid Conc. OD (24 hr): 15200 ng/mL and 57500 ng/mL
Choroid Conc. OS (48 hr): 9320 ng/mL and 14800 ng/mL
Choroid Conc. OD (48 hr): 9940 ng/mL and 9580 ng/mL
Choroid Conc. OS (72 hr): 2660 ng/mL and 2910 ng/mL
Choroid Conc. OD (72 hr): 2180 ng/mL and 2270 ng/mL
Choroid tissue Conc. Avg. (6.0 hr): 663575 ng/g
Choroid tissue Conc. OS (6.0 hr): 697400 ng/g and 766700 ng/g
Choroid tissue Conc. OD (6.0 hr): 360800 ng/g and 829400 ng/g
Choroid tissue Conc. Avg. (24 hr): 397650 ng/g
Choroid tissue Conc. OS (24 hr): 312400 ng/g and 478500 ng/g
Choroid tissue Conc. OD (24 hr): 167200 ng/g and 632500 ng/g
Choroid tissue Conc. Avg. (48 hr): 120010 ng/g
Choroid tissue Conc. OS (48 hr): 102520 ng/g
Choroid tissue Conc. OD (48 hr): 109340 ng/g and 105380 ng/g
Choroid tissue Conc. Avg. (72 hr): 27555 ng/g
Choroid tissue Conc. OS (72 hr): 29260 ng/g and 32010 ng/g
Choroid tissue Conc. OD (72 hr): 23980 ng/g and 24970 ng/g
Cornea Conc. OS (6.0 hr): 3140 ng/mL and 1180 ng/mL
Cornea Conc. OD (6.0 hr): 7910 ng/mL and 7610 ng/mL
Cornea Conc. OS (24 hr): 1190 ng/mL and 1050 ng/mL
Cornea Conc. OD (24 hr): 1520 ng/mL and 2520 ng/mL
Cornea Conc. OS (48 hr): 293 ng/mL and 571 ng/mL
Cornea Conc. OD (48 hr): 437 ng/mL and 384 ng/mL
Cornea Conc. OS (72 hr): 117 ng/mL and 45.3 ng/mL
Cornea Conc. OD (72 hr): 37.7 ng/mL and 77.2 ng/mL
Cornea tissue Conc. Avg. (6.0 hr): 54560 ng/g
Cornea tissue Conc. OS (6.0 hr): 34540 ng/g and 12980 ng/g
Cornea tissue Conc. OD (6.0 hr): 87010 ng/g and 83710 ng/g
Cornea tissue Conc. Avg. (24 hr): 17270 ng/g
Cornea tissue Conc. OS (24 hr): 13090 ng/g and 11550 ng/g
Cornea tissue Conc. OD (24 hr): 16720 ng/g and 27720 ng/g
Cornea tissue Conc. Avg. (48 hr): 4634 ng/g
Cornea tissue Conc. OS (48 hr): 3223 ng/g and 6281 ng/g
Cornea tissue Conc. OD (48 hr): 4807 ng/g and 4224 ng/g
Cornea tissue Conc. Avg. (72 hr): 762 ng/g
Cornea tissue Conc. OS (72 hr): 1287 ng/g and 498 ng/g
Cornea tissue Conc. OD (72 hr): 415 ng/g and 849 ng/g
distribution among iris, retina, choroid, cornea (FIG. 16) (intravitreal 1.54 mg/kg, free acid): generally higher in the retina and choroid
ocular tissue concentrations at 72 hours, free acid suspension relative to sodium salt solution (intravitreal administration): higher concentrations
Iris Conc. OS (6.0 hr): 13800 ng/mL and 12200 ng/mL
Iris Conc. OD (6.0 hr): 18500 ng/mL and 32100 ng/mL
Iris Conc. OS (24 hr): 14100 ng/mL and 8200 ng/mL
Iris Conc. OD (24 hr): 7670 ng/mL and 11000 ng/mL
Iris Conc. OS (48 hr): 1950 ng/mL and 2030 ng/mL
Iris Conc. OD (48 hr): 1010 ng/mL and 1110 ng/mL
Iris Conc. OS (72 hr): 1800 ng/mL and 1320 ng/mL
Iris Conc. OD (72 hr): 279 ng/mL and 351 ng/mL
Iris tissue Conc. Avg. (6.0 hr): 210650 ng/g
Iris tissue Conc. OS (6.0 hr): 151800 ng/g and 134200 ng/g
Iris tissue Conc. OD (6.0 hr): 203500 ng/g and 353100 ng/g
Iris tissue Conc. Avg. (24 hr): 112668 ng/g
Iris tissue Conc. OS (24 hr): 155100 ng/g and 90200 ng/g
Iris tissue Conc. OD (24 hr): 84370 ng/g and 121000 ng/g
Iris tissue Conc. Avg. (48 hr): 16775 ng/g
Iris tissue Conc. OS (48 hr): 21450 ng/g and 22330 ng/g
Iris tissue Conc. OD (48 hr): 11110 ng/g and 12210 ng/g
Iris tissue Conc. Avg. (72 hr): 10313 ng/g
Iris tissue Conc. OS (72 hr): 19800 ng/g and 14520 ng/g
Iris tissue Conc. OD (72 hr): 3069 ng/g and 3861 ng/g
Retina Conc. OS (6.0 hr): 154000 ng/mL and 120000 ng/mL
Retina Conc. OD (6.0 hr): 146000 ng/mL and 303000 ng/mL
Retina Conc. OS (24 hr): 98900 ng/mL and 198000 ng/mL
Retina Conc. OD (24 hr): 130000 ng/mL and 145000 ng/mL
Retina Conc. OS (48 hr): 14000 ng/mL and 101000 ng/mL
Retina Conc. OD (48 hr): 66700 ng/mL and 65500 ng/mL
Retina Conc. OS (72 hr): 10800 ng/mL and 12900 ng/mL
Retina Conc. OD (72 hr): 9890 ng/mL and 6070 ng/mL
Retina tissue Conc. Avg. (6.0 hr): 1988250 ng/g
Retina tissue Conc. OS (6.0 hr): 1694000 ng/g and 1320000 ng/g
Retina tissue Conc. OD (6.0 hr): 1606000 ng/g
Retina tissue Conc. Avg. (24 hr): 1572725 ng/g
Retina tissue Conc. OS (24 hr): 1087900 ng/g and 2178000 ng/g
Retina tissue Conc. OD (24 hr): 1430000 ng/g and 1595000 ng/g
Retina tissue Conc. Avg. (48 hr): 679800 ng/g
Retina tissue Conc. OS (48 hr): 154000 ng/g and 1111000 ng/g
Retina tissue Conc. OD (48 hr): 733700 ng/g and 720500 ng/g
Retina tissue Conc. Avg. (72 hr): 109065 ng/g
Retina tissue Conc. OS (72 hr): 118800 ng/g and 141900 ng/g
Retina tissue Conc. OD (72 hr): 108790 ng/g and 66770 ng/g
distribution among iris, retina, choroid, cornea (FIG. 14) (subcutaneous 5 mg/kg/dose, free acid): generally higher in the iris and choroid
